Source: US20230135152A1 (ACURASTEM INCORPORATED, priority 2020, published 2023)

Tests used:
PIKFYVE [1] = molecular target: T1, PIKFYVE (Homo sapiens, UniProt Q9Y2I7); experiment: Cell-based Pikfyve inhibition activity assay (EEA1 staining, mean vesicle size in BJ fibroblast cells); conditions: Table 4, 4 hours treatment, 3 μM Apilimod = 100% inhibition
Procedure, shortened: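 BJ fibroblasts treated 4 h at 37° C with eleven 3-fold doses (0.03-3000 nM), then fixed and stained for EEA1. Confocal images (20×, 16 tiles/well) analysed for mean vesicle size. Normalised to 0.5% DMSO (0%) and 3 μM apilimod (100%); dose-response fitted with variable slope.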

PIKFYVE [2] = molecular target: T1, PIKFYVE; experiment: PIKFYVE assay (luciferase ADP-Glo kinase assay, Promega); assay type: biochemical; conditions: Table 3
Procedure, shortened: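 ADP generated in the kinase reaction was detected by ADP-Glo luminescence (luciferase).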

T1 sequence (Q9Y2I7 whole entry): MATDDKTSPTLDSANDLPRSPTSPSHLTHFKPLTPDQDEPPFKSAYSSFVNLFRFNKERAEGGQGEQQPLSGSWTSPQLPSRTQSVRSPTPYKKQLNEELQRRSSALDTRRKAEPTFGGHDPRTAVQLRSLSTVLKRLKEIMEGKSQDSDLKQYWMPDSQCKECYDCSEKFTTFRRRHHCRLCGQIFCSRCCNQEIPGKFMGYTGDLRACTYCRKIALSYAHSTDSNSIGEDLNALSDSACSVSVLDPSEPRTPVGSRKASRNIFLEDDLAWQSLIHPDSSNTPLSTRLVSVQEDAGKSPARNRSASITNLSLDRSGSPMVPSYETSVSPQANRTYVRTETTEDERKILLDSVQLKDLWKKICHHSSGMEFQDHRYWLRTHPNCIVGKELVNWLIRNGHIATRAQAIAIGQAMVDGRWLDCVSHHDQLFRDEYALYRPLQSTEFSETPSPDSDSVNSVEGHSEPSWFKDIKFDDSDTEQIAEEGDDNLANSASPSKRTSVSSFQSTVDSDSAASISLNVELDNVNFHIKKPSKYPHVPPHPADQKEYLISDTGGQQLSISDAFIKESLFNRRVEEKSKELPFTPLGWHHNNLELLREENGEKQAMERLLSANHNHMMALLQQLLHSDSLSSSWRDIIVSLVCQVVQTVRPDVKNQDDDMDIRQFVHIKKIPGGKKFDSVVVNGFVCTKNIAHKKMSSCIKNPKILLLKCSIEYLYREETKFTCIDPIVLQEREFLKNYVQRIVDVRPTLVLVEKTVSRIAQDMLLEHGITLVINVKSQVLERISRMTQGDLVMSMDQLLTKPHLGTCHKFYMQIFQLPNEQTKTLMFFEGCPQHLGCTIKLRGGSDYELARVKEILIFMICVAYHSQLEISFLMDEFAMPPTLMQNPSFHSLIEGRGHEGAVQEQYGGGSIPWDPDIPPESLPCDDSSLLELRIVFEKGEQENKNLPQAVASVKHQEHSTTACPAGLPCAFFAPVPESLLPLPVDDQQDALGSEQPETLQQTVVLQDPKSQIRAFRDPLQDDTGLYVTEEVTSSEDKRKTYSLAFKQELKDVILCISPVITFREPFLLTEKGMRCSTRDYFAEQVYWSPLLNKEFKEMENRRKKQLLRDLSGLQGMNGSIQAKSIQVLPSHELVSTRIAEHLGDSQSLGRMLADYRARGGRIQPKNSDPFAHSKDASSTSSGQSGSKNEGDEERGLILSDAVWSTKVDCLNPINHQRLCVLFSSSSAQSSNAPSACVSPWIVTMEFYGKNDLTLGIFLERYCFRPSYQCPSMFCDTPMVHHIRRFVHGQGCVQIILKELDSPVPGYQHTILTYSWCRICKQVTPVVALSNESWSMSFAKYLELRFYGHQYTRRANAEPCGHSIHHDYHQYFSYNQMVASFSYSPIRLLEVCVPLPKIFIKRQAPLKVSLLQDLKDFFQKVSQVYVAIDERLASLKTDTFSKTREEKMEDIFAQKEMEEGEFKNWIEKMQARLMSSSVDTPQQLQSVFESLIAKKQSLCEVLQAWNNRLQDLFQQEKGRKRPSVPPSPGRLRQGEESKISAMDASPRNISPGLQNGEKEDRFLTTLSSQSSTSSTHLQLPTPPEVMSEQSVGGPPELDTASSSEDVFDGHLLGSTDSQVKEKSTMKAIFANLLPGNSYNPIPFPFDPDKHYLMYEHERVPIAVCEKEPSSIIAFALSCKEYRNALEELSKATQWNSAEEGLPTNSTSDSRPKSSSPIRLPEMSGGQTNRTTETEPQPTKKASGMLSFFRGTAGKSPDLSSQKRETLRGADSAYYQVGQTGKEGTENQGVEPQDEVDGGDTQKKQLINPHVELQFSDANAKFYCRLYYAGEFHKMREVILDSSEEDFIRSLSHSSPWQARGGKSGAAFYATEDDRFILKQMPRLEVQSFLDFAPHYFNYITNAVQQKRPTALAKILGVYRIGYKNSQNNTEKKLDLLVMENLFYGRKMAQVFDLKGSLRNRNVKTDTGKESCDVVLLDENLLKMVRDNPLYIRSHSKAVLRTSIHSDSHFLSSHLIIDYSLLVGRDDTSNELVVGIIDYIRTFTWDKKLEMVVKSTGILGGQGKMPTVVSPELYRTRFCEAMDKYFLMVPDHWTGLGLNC

Compound | EC50 (PIKFYVE [1]) [µM] | IC50 (PIKFYVE [2]) [nM]
Cn1cc(CCOc2nc(N3CCOCC3)cc(-n3ccc(-c4c[nH]c5ccccc45)n3)n2)cn1 [Compound 203, 4-(6-(3-(1H-indol-3-yl)-1H-pyrazol-1-yl)-2-(2-(1-methyl-1H-pyrazol-4-yl)ethoxy)pyrimidin-4-yl)morpholine] | 0.1 to 0.5 | 10 to 100
CO[C@@H](CO)c1nc(N2CCOCC2)cc(-n2nc(-c3ccccc3)cc2C)n1 [Compound 204, (R)-2-methoxy-2-(4-(5-methyl-3-phenyl-1H-pyrazol-1-yl)-6-morpholinopyrimidin-2-yl)ethan-1-ol] | 0.5 to 5 | 10 to 100
Cc1cccc(-c2cc(CN(C)C)n(-c3cc(N4CCOCC4)nc(OCC4(C)COC4)n3)n2)c1 [Compound 206, N,N-dimethyl-1-(1-(2-((3-methyloxetan-3-yl)methoxy)-6-morpholinopyrimidin-4-yl)-3-(m-tolyl)-1H-pyrazol-5-yl)methanamine] | 0.5 to 5 | 3 to 10
Cc1cccc(-c2ccn(-c3cc(N4CCOCC4)nc(NCCO)n3)n2)c1 [Compound 208, 2-((4-morpholino-6-(3-(m-tolyl)-1H-pyrazol-1-yl)pyrimidin-2-yl)amino)ethan-1-ol] | 0.02 to 0.1 | 3 to 10
Cc1cccc(-c2ccn(-c3cc(N4CCOCC4)nc(OCCN)n3)n2)c1 [Compound 209, 2-((4-morpholino-6-(3-(m-tolyl)-1H-pyrazol-1-yl)pyrimidin-2-yl)oxy)ethan-1-amine] | 0.1 to 0.5 | 10 to 100
Cn1cc(CCOc2nc(N3CCOCC3)cc(-n3nc(O)cc3-c3ccccc3)n2)cn1 [Compound 211, 1-(2-(2-(1-methyl-1H-pyrazol-4-yl)ethoxy)-6-morpholinopyrimidin-4-yl)-5-phenyl-1H-pyrazol-3-ol] | 0.1 to 0.5 | < 3
Cn1cc(CCOc2nc(Oc3cc(-c4ccccc4)nn3C)cc(N3CCOCC3)n2)cn1 [Compound 212, 4-(2-(2-(1-methyl-1H-pyrazol-4-yl)ethoxy)-6-((1-methyl-3-phenyl-1H-pyrazol-5-yl)oxy)pyrimidin-4-yl)morpholine] | 0.5 to 5 | 3 to 10
Cc1cccc(-c2ccn(-c3cc(N4CCOCC4)nc(OCCc4cn[nH]c4)n3)n2)c1 [Compound 214, 4-(2-(2-(1H-pyrazol-4-yl)ethoxy)-6-(3-(m-tolyl)-1H-pyrazol-1-yl)pyrimidin-4-yl)morpholine] | < 0.02 | < 3
Cn1cc(CCOc2nc(Oc3cc(-c4ccccc4)[nH]n3)cc(N3CCOCC3)n2)cn1 [Compound 215, 4-(2-(2-(1-methyl-1H-pyrazol-4-yl)ethoxy)-6-((5-phenyl-1H-pyrazol-3-yl)oxy)pyrimidin-4-yl)morpholine] | 0.5 to 5 | 10 to 100
Cn1cc(CCOc2nc(N3CCOCC3)cc(-n3nc(-c4ccccc4)cc3C3CC3)n2)cn1 [Compound 216, 4-(6-(5-cyclopropyl-3-phenyl-1H-pyrazol-1-yl)-2-(2-(1-methyl-1H-pyrazol-4-yl)ethoxy)pyrimidin-4-yl)morpholine] | 0.02 to 0.1 | < 3
COCc1cc(-c2ccccc2)nn1-c1cc(N2CCOCC2)nc(OCCc2cnn(C)c2)n1 [Compound 217, 4-(6-(5-(methoxymethyl)-3-phenyl-1H-pyrazol-1-yl)-2-(2-(1-methyl-1H-pyrazol-4-yl)ethoxy)pyrimidin-4-yl)morpholine] | 0.02 to 0.1 | < 3
CCc1cc(-c2ccccc2)nn1-c1cc(N2CCOCC2)nc(OCCc2cnn(C)c2)n1 [Compound 218, 4-(6-(5-ethyl-3-phenyl-1H-pyrazol-1-yl)-2-(2-(1-methyl-1H-pyrazol-4-yl)ethoxy)pyrimidin-4-yl)morpholine] | 0.02 to 0.1 | < 3
Cc1cccc(-c2cc(C)n(-c3cc(N4CCOCC4)nc(OCCc4cnn(C)c4)n3)n2)c1 [Compound 219, 4-(2-(2-(1-methyl-1H-pyrazol-4-yl)ethoxy)-6-(5-methyl-3-(m-tolyl)-1H-pyrazol-1-yl)pyrimidin-4-yl)morpholine] | 0.02 to 0.1 | < 3
CN(C)CCc1cc(-c2ccccc2)nn1-c1cc(N2CCOCC2)nc(OCCc2cnn(C)c2)n1 [Compound 220, N,N-dimethyl-2-(1-(2-(2-(1-methyl-1H-pyrazol-4-yl)ethoxy)-6-morpholinopyrimidin-4-yl)-3-phenyl-1H-pyrazol-5-yl)ethan-1-amine] | < 0.02 | < 3
CNCCc1cc(-c2ccccc2)nn1-c1cc(N2CCOCC2)nc(OCCc2cnn(C)c2)n1 [Compound 221, N-methyl-2-(1-(2-(2-(1-methyl-1H-pyrazol-4-yl)ethoxy)-6-morpholinopyrimidin-4-yl)-3-phenyl-1H-pyrazol-5-yl)ethan-1-amine] | 0.02 to 0.1 | < 3
Cc1cccc(-c2ccn(-c3cc(N4CCOCC4)nc(CCc4cnn(C)c4)n3)n2)c1 [Compound 223, 4-(2-(2-(1-methyl-1H-pyrazol-4-yl)ethyl)-6-(3-(m-tolyl)-1H-pyrazol-1-yl)pyrimidin-4-yl)morpholine] | 0.1 to 0.5 | < 3

Compound | EC50 (PIKFYVE [1]) [µM] | IC50 (PIKFYVE [2]) [nM]
CO[C@H](CO)c1nc(N2CCOCC2)cc(-n2nc(-c3cccc(C)c3)cc2C)n1 [Compound 225, (S)-2-methoxy-2-(4-(5-methyl-3-(m-tolyl)-1H-pyrazol-1-yl)-6-morpholinopyrimidin-2-yl)ethan-1-ol] | 0.1 to 0.5 | 3 to 10
COC(C)(CO)c1nc(N2CCOCC2)cc(-n2ccc(-c3cccc(C)c3)n2)n1 (centres unmarked) [Compound 226, 2-methoxy-2-(4-morpholino-6-(3-(m-tolyl)-1H-pyrazol-1-yl)pyrimidin-2-yl)propan-1-ol] | 0.5 to 5 | 3 to 10
COC(C)(CO)c1nc(N2CCOCC2)cc(-n2ccc(-c3cccc(C)c3)n2)n1 (centres unmarked) [Compound 227, 2-methoxy-2-(4-morpholino-6-(3-(m-tolyl)-1H-pyrazol-1-yl)pyrimidin-2-yl)propan-1-ol] | 0.1 to 0.5 | < 3
COC(CO)(c1ccccc1)c1nc(N2CCOCC2)cc(-n2ccc(-c3cccc(C)c3)n2)n1 (centres unmarked) [Compound 228, 2-methoxy-2-(4-morpholino-6-(3-(m-tolyl)-1H-pyrazol-1-yl)pyrimidin-2-yl)-2-phenylethan-1-ol] | 0.1 to 0.5 | < 3
COC(CO)(c1ccccc1)c1nc(N2CCOCC2)cc(-n2ccc(-c3cccc(C)c3)n2)n1 (centres unmarked) [Compound 229, 2-methoxy-2-(4-morpholino-6-(3-(m-tolyl)-1H-pyrazol-1-yl)pyrimidin-2-yl)-2-phenylethan-1-ol] | 0.1 to 0.5 | 3 to 10
Cc1cccc(-c2ccn(-c3cc(N4CCOCC4)nc(C#CC(O)c4cnn(C)c4)n3)n2)c1 (centres unmarked) [Compound 230, 1-(1-methyl-1H-pyrazol-4-yl)-3-(4-morpholino-6-(3-(m-tolyl)-1H-pyrazol-1-yl)pyrimidin-2-yl)prop-2-yn-1-ol] | 0.02 to 0.1 | < 3
Cc1cccc(-c2ccn(-c3cc(N4CCOCC4)nc(CCC(O)c4cnn(C)c4)n3)n2)c1 (centres unmarked) [Compound 231, 1-(1-methyl-1H-pyrazol-4-yl)-3-(4-morpholino-6-(3-(m-tolyl)-1H-pyrazol-1-yl)pyrimidin-2-yl)propan-1-ol] | 0.02 to 0.1 | < 3
Cn1cc(CCOc2nc(N3CCOCC3)cc(-n3ccc(-c4cn(C)c5ccccc45)n3)n2)cn1 [Compound 232, 4-(6-(3-(1-methyl-1H-indol-3-yl)-1H-pyrazol-1-yl)-2-(2-(1-methyl-1H-pyrazol-4-yl)ethoxy)pyrimidin-4-yl)morpholine] | > 5 | 100 to 5000
Cn1cc(CCOc2nc(N3CCOCC3)cc(-n3nc(-c4ccccc4)cc3CO)n2)cn1 [Compound 233, (1-(2-(2-(1-methyl-1H-pyrazol-4-yl)ethoxy)-6-morpholinopyrimidin-4-yl)-3-phenyl-1H-pyrazol-5-yl)methanol] | 0.02 to 0.1 | < 3
Cc1cccc(-c2cc(CO)n(-c3cc(N4CCOCC4)nc(OCCc4cnn(C)c4)n3)n2)c1 [Compound 234, (1-(2-(2-(1-methyl-1H-pyrazol-4-yl)ethoxy)-6-morpholinopyrimidin-4-yl)-3-(m-tolyl)-1H-pyrazol-5-yl)methanol] | < 0.02 | < 3
Cc1cccc(-c2cc(CN3CCOCC3)n(-c3cc(N4CCOCC4)nc(OCCc4cnn(C)c4)n3)n2)c1 [Compound 235, 4-(2-(2-(1-methyl-1H-pyrazol-4-yl)ethoxy)-6-(5-(morpholinomethyl)-3-(m-tolyl)-1H-pyrazol-1-yl)pyrimidin-4-yl)morpholine] | 0.02 to 0.1 | < 3
COc1nc(N2CCOCC2)cc(-n2nc(-c3cccc(C)c3)cc2CN2CCOCC2)n1 [Compound 236, 4-(2-methoxy-6-(5-(morpholinomethyl)-3-(m-tolyl)-1H-pyrazol-1-yl)pyrimidin-4-yl)morpholine] | > 5 | < 3
Cc1cccc(-c2cc(N3CCOCC3)n(-c3cc(N4CCOCC4)nc(OCCc4cnn(C)c4)n3)n2)c1 [Compound 237, 4-(2-(2-(1-methyl-1H-pyrazol-4-yl)ethoxy)-6-(5-morpholino-3-(m-tolyl)-1H-pyrazol-1-yl)pyrimidin-4-yl)morpholine] | < 0.02 | < 3
Cc1cccc(-c2ccn(-c3cc(N4CCOCC4)nc(OCc4ccn(CCN(C)C)n4)n3)n2)c1 [Compound 238, N,N-dimethyl-2-(3-(((4-morpholino-6-(3-(m-tolyl)-1H-pyrazol-1-yl)pyrimidin-2-yl)oxy)methyl)-1H-pyrazol-1-yl)ethan-1-amine] | 0.1 to 0.5 | < 3
Cc1cccc(-c2ccn(-c3cc(N4CCOCC4)c4[nH]ccc4n3)n2)c1 [Compound 241, 4-(5-(3-(m-tolyl)-1H-pyrazol-1-yl)-1H-pyrrolo[3,2-b]pyridin-7-yl)morpholine] | 0.5 to 5 | 3 to 10
